Source: patent US5591714A, “Derivatives of A82846” (priority 1994, dated 1997)

Assays:
Escherichia coli EC14 = test: MIC, standard agar-dilution assay; type: cell-based
Procedure: (§1) The formula I compounds have in vitro and in vivo activity against Gram-positive pathogenic bacteria. The MIC's were determined using a standard agar-dilution assays.

Escherichia coli N10 = test: MIC, standard agar-dilution assay; type: cell-based
Procedure: as §1

Escherichia coli TEM = test: MIC, standard agar-dilution assay; type: cell-based
Procedure: as §1

[1] = test system: Haemophilus influenzae 76; test: MIC, standard agar-dilution assay; type: cell-based
Procedure: as §1

[2] = test system: Haemophilus influenzae C.L.; test: MIC, standard agar-dilution assay; type: cell-based
Procedure: as §1

[3] = test system: Klebsiella pneumoniae KAE; test: MIC, standard agar-dilution assay; type: cell-based
Procedure: as §1

[4] = test system: Klebsiella pneumoniae X26; test: MIC, standard agar-dilution assay; type: cell-based
Procedure: as §1

[5] = test system: Klebsiella pneumoniae X68; test: MIC, standard agar-dilution assay; type: cell-based
Procedure: as §1

[6] = test system: Staphylococcus aureus NRRL X1.1; test: MIC, standard agar-dilution assay; type: cell-based
Procedure: as §1

[7] = test system: Staphylococcus aureus V41; test: MIC, standard agar-dilution assay; type: cell-based
Procedure: as §1

[8] = test system: Staphylococcus aureus X400; test: MIC, standard agar-dilution assay; type: cell-based
Procedure: as §1

[9] = test system: Staphylococcus epidermidis 222; test: MIC, standard agar-dilution assay; type: cell-based
Procedure: as §1

[10] = test system: Staphylococcus epidermidis EPI270; test: MIC, standard agar-dilution assay; type: cell-based
Procedure: as §1

[11] = test system: Streptococcus pyogenes C203; test: MIC, standard agar-dilution assay; type: cell-based
Procedure: as §1

[12] = test system: Staphylococcus aureus S13E; type: cell-based
Procedure: as §1

[13] = test system: Streptococcus pneumoniae Park 1; type: cell-based
Procedure: as §1

Enterococcus faecium X66 = test: MIC, standard agar-dilution assay; type: cell-based
Procedure: as §1
^b Formerly Streptococcus faecium X66

[14] = test system: Enterococcus faecalis 2041; test: MIC, standard agar-dilution assay; type: cell-based
Procedure: as §1
^c Formerly Streptococcus faecalis 2041

Streptococcus pyogenes = test: In vivo activity, experimentally infected mice (ED50); settings: Streptococcus pyogenes infection; doses administered subcutaneously to mice 1 and 4 hours postinfection
Staphylococcus aureus = test: as above; settings: Staphylococcus aureus infection; doses administered subcutaneously to mice 1 and 4 hours postinfection
Streptococcus pneumoniae = test: as above; settings: Streptococcus pneumoniae infection; doses administered subcutaneously to mice 1 and 4 hours postinfection

CCCCCCCCOc1ccc(CNC2(C)CC(OC3C(Oc4c5cc6cc4Oc4ccc(cc4Cl)C(OC4CC(C)(N)C(O)C(C)O4)C4NC(=O)C(NC(=O)C6NC(=O)C(CC(N)=O)NC(=O)C(NC(=O)C(CC(C)C)NC)C(O)c6ccc(c(Cl)c6)O5)c5ccc(O)c(c5)-c5c(O)cc(O)cc5C(C(=O)O)NC4=O)OC(CO)C(O)C3O)OC(C)C2O)cc1 (centres unmarked) [Compound 55]
16 µg/mL: MIC [8] | MIC [10]
0.73 mg/kg/2: ED50 (Streptococcus pyogenes)
> 128 µg/mL: MIC (Escherichia coli EC14) | MIC (Escherichia coli N10) | MIC (Escherichia coli TEM) | MIC [1] | MIC [2] | MIC [3] | MIC [4] | MIC [5]
8 µg/mL: MIC [6] | MIC [9] | MIC [12] | MIC (Enterococcus faecium X66) | MIC [14]
2 µg/mL: MIC [13]
4 µg/mL: MIC [7] | MIC [11]

CCCCCNC1(C)CC(OC2c3ccc(cc3)Oc3cc4cc(c3O)Oc3ccc(cc3Cl)C(O)C(NC(=O)C(CC(C)C)NC)C(=O)NC(CC(N)=O)C(=O)NC4C(=O)NC3C(=O)NC2C(=O)NC(C(=O)O)c2cc(O)cc(O)c2-c2cc3ccc2O)OC(C)C1O (centres unmarked) [Compound 74]
8 µg/mL: MIC (Enterococcus faecium X66) | MIC [14]
4 µg/mL: MIC [6] | MIC [7] | MIC [8] | MIC [9] | MIC [11] | MIC [12] | MIC [13]
2 µg/mL: MIC [10]
> 128 µg/mL: MIC (Escherichia coli EC14) | MIC (Escherichia coli N10) | MIC (Escherichia coli TEM) | MIC [1] | MIC [2] | MIC [3] | MIC [4] | MIC [5]

CNC(CC(C)C)C(=O)NC1C(=O)NC(CC(N)=O)C(=O)NC2C(=O)NC3C(=O)NC(C(=O)NC(C(=O)O)c4cc(O)cc(O)c4-c4cc3ccc4O)C(OC3CC(C)(NCc4ccccc4)C(O)C(C)O3)c3ccc(c(Cl)c3)Oc3cc2cc(c3O)Oc2ccc(cc2Cl)C1O (centres unmarked) [Compound 79]
0.71 mg/kg/2: ED50 (Streptococcus pyogenes) | ED50 (Streptococcus pneumoniae)
.5 µg/mL: MIC [8] | MIC [9]
> 128 µg/mL: MIC (Escherichia coli EC14) | MIC (Escherichia coli N10) | MIC (Escherichia coli TEM) | MIC [1] | MIC [2] | MIC [3] | MIC [4] | MIC [5]
> 1.0 mg/kg/2: ED50 (Staphylococcus aureus)
.25 µg/mL: MIC [6] | MIC [7] | MIC [11] | MIC [12] | MIC [13]
1 µg/mL: MIC (Enterococcus faecium X66) | MIC [14]

CNC(CC(C)C)C(=O)NC1C(=O)NC(CC(N)=O)C(=O)NC2C(=O)NC3C(=O)NC(C(=O)NC(C(=O)O)c4cc(O)cc(O)c4-c4cc3ccc4O)C(OC3CC(C)(NCc4ccc(F)cc4)C(O)C(C)O3)c3ccc(c(Cl)c3)Oc3cc2cc(c3OC2OC(CO)C(O)C(O)C2OC2CC(C)(N)C(O)C(C)O2)Oc2ccc(cc2Cl)C1O (centres unmarked) [Compound 66]
2 µg/mL: MIC [10]
.5 µg/mL: MIC [6] | MIC [11]
0.22 mg/kg/2: ED50 (Streptococcus pneumoniae)
.25 µg/mL: MIC [13]
1 µg/mL: MIC [7] | MIC [8] | MIC [9] | MIC [12] | MIC (Enterococcus faecium X66) | MIC [14]
0.37 mg/kg/2: ED50 (Staphylococcus aureus)
> 128 µg/mL: MIC (Escherichia coli EC14) | MIC (Escherichia coli N10) | MIC [1] | MIC [2] | MIC [3] | MIC [4] | MIC [5]
0.18 mg/kg/2: ED50 (Streptococcus pyogenes)

CCCCCNC1(C)CC(OC2c3ccc(cc3)Oc3cc4cc(c3OC3OC(CO)C(O)C(O)C3O)Oc3ccc(cc3Cl)C(O)C(NC(=O)C(CC(C)C)NC)C(=O)NC(CC(N)=O)C(=O)NC4C(=O)NC3C(=O)NC2C(=O)NC(C(=O)O)c2cc(O)cc(O)c2-c2cc3ccc2O)OC(C)C1O (centres unmarked) [Compound 71]
4 µg/mL: MIC [8] | MIC [9]
1 µg/mL: MIC [10]
> 128 µg/mL: MIC (Escherichia coli EC14) | MIC (Escherichia coli N10) | MIC (Escherichia coli TEM) | MIC [1] | MIC [2] | MIC [3] | MIC [4] | MIC [5]
8 µg/mL: MIC (Enterococcus faecium X66) | MIC [14]
2 µg/mL: MIC [6] | MIC [7] | MIC [11] | MIC [12] | MIC [13]

CCCCCCCCc1ccc(CNC2(C)CC(OC3C(Oc4c5cc6cc4Oc4ccc(cc4Cl)C(OC4CC(C)(N)C(O)C(C)O4)C4NC(=O)C(NC(=O)C6NC(=O)C(CC(N)=O)NC(=O)C(NC(=O)C(CC(C)C)NC)C(O)c6ccc(c(Cl)c6)O5)c5ccc(O)c(c5)-c5c(O)cc(O)cc5C(C(=O)O)NC4=O)OC(CO)C(O)C3O)OC(C)C2O)cc1 (centres unmarked) [Compound 54]
8 µg/mL: MIC [11]
32 µg/mL: MIC [6]
64 µg/mL: MIC [7] | MIC [8] | MIC [9] | MIC [10] | MIC [12] | MIC (Enterococcus faecium X66) | MIC [14]
> 128 µg/mL: MIC (Escherichia coli EC14) | MIC (Escherichia coli N10) | MIC (Escherichia coli TEM) | MIC [1] | MIC [2] | MIC [3] | MIC [4] | MIC [5]
0.91 mg/kg/2: ED50 (Streptococcus pyogenes)
4 µg/mL: MIC [13]

CNC(CC(C)C)C(=O)NC1C(=O)NC(CC(N)=O)C(=O)NC2C(=O)NC3C(=O)NC(C(=O)NC(C(=O)O)c4cc(O)cc(O)c4-c4cc3ccc4O)C(OC3CC(C)(N)C(O)C(C)O3)c3ccc(c(Cl)c3)Oc3cc2cc(c3OC2OC(CO)C(O)C(O)C2OC2CC(C)(NCc3ccc(F)cc3)C(O)C(C)O2)Oc2ccc(cc2Cl)C1O (centres unmarked) [Compound 67]
.125 µg/mL: MIC [13]
0.33 mg/kg/2: ED50 (Staphylococcus aureus)
> 128 µg/mL: MIC (Escherichia coli EC14) | MIC (Escherichia coli N10) | MIC [1] | MIC [2] | MIC [3] | MIC [4] | MIC [5]
2 µg/mL: MIC [10]
1 µg/mL: MIC [7] | MIC [8] | MIC [12]
.25 µg/mL: MIC [11]
.5 µg/mL: MIC [6] | MIC [9] | MIC (Enterococcus faecium X66) | MIC [14]
< 0.12 mg/kg/2: ED50 (Streptococcus pyogenes) | ED50 (Streptococcus pneumoniae)

CCCCCNC1(C)CC(OC2c3ccc(c(Cl)c3)Oc3cc4cc(c3OC3OC(CO)C(O)C(O)C3O)Oc3ccc(cc3Cl)C(O)C(NC(=O)C(CC(C)C)NC)C(=O)NC(CC(N)=O)C(=O)NC4C(=O)NC3C(=O)NC2C(=O)NC(C(=O)O)c2cc(O)cc(O)c2-c2cc3ccc2O)OC(C)C1O (centres unmarked) [Compound 77]
1 µg/mL: MIC [8] | MIC [9]
.5 µg/mL: MIC [6] | MIC [7] | MIC [12] | MIC [13]
128 µg/mL: MIC [1] | MIC [2]
2 µg/mL: MIC (Enterococcus faecium X66) | MIC [14]
> 128 µg/mL: MIC (Escherichia coli EC14) | MIC (Escherichia coli N10) | MIC (Escherichia coli TEM) | MIC [3] | MIC [4] | MIC [5]
8 µg/mL: MIC [10]
.25 µg/mL: MIC [11]

CCCCCN(C)[C@H](CC(C)C)C(=O)N[C@H]1C(=O)N[C@@H](CC(N)=O)C(=O)N[C@H]2C(=O)N[C@H]3C(=O)N[C@H](C(=O)N[C@H](C(=O)O)c4cc(O)cc(O)c4-c4cc3ccc4O)[C@H](O[C@H]3C[C@](C)(N)[C@@H](O)[C@H](C)O3)c3ccc(c(Cl)c3)Oc3cc2cc(c3O[C@@H]2O[C@H](CO)[C@@H](O)[C@H](O)[C@H]2O[C@H]2C[C@](C)(N)[C@@H](O)[C@H](C)O2)Oc2ccc(cc2Cl)[C@H]1O [Compound 35]
> 128 µg/mL: MIC (Escherichia coli EC14) | MIC (Escherichia coli N10) | MIC (Escherichia coli TEM) | MIC [1] | MIC [2] | MIC [3] | MIC [4] | MIC [5]
.5 µg/mL: MIC [6] | MIC [8] | MIC [9] | MIC (Enterococcus faecium X66) | MIC [14]
.25 µg/mL: MIC [7] | MIC [11] | MIC [12] | MIC [13]
1 µg/mL: MIC [10]
